Entries after “also recorded” stand apart in the source; their conditions may differ.
Columns and labels:
[1] = tested on: rat adjuvant induced arthritis (AIA); test: Prophylactic model of rat adjuvant induced arthritis (AIA); conditions: for joint damage (radiographs; CT scan at 2.5 mg/kg): 2.5 mg/kg/day and 500 μg/kg/day IP; for paw inflammation (paw volume), dose effect: 2.5 mg/kg/day and 500 μg/kg/day IP from day 10, left and right paw; for joint histology (H&E staining): limb at study end
[2] = tested on: mouse collagen-induced arthritis (CIA); test: Mouse collagen-induced arthritis (CIA) model; type: in vivo, DBA/J1 mice; conditions: dosing from day 18
Protocol: Male DBA/J1 mice (7-9 weeks old from Jackson Labs, Bar Harbor, Me., USA) were used. The CIA study using mice of same age, strain and source was performed at Boulder BioPATH Inc as described below. Male DBA/J1 mice were shaved at the base of the tail and injected with 0.1 ml emulsion consisting of a 1 to 1 (1 mg/l mg) mixture of type II chicken collagen with Mycobacterium butyricum (Difco) as an adjuvant. Three weeks later, the mice were boosted with another 0.1 ml injection of emulsion at the base of the tail to induce disease. Dosing started at day 18 while the last boost to induce the disease was at day 21. The mice were scored in a blinded manner twice weekly for 3 weeks for signs of arthritis in each paw according to the following scale: clinical signs were evaluated using the following scale: 0=normal; 1=one joint affected or mild diffuse erythema and swelling; 2=two joints affected or mild diffuse erythema and swelling; 3=three joints affected or mild diffuse erythema and swelling; 4=four joint affected or marked diffuse erythema and swelling; and 5=severe erythema and severe swelling. Upon study completion (day 28), mice were killed with CO2.

[3] = tested on: rat adjuvant induced arthritis (AIA); conditions: in vivo, ip, 5 mg/kg/day
[4] = tested on: rat adjuvant induced arthritis (AIA), established disease; conditions: male rats, 2.5 mg/kg IP every other day from day 16 to day 40, left and right paw; listed as TC 5, 2.5 mg/kg
[5] = male rats, 5 mg/kg/day IP from day 10 for 14 days, right paw, 5 mg/kg/day
[6] = male rats, 500 μg/kg/day IP from day 10
[7] = male rats, 10 mg/kg/day IP from day 10 for 14 days, left and right paw, 10 mg/kg/day
[8] = male rats, 10 mg/kg/day IP, 10 mg/kg/day
[9] = male rats, 10 mg/kg/day IP, limbs at study end, 10 mg/kg/day

## CC/C(=C(\c1ccccc1)c1ccc(OCCN(C)C)cc1)c1ccccc1 [Tamoxifen, (Z)-2-[4-(1,2-diphenylbut-1-enyl)phenoxy]-N,N-dimethyl-ethanamine]
[1]; [5]
  paw inflammation (paw volume): reduced paw inflammation to control levels similar to those observed for ENBREL
[1]; male rats, 5 mg/kg/day IP from day 10 for 14 days, right paw, listed as tamoxifen, 5 mg/kg/day
  paw inflammation (paw volume): can reduce paw inflammation

## COc1ccc(C(Cl)=C(c2ccc(OC)cc2)c2ccc(OC)cc2)cc1 [TC10, 1,1′,1″-(2-chloroethene-1,1,2-triyl)tris(4-methoxybenzene)]
[1]; female rats, 2.5 and 0.5 mg/kg/day IP
  joint damage (radiographs): effective in preserving the joint damage at both concentrations tested; also recorded: able to prevent significant joint damage compared to the disease control
[1]; female rats, 2.5 and 0.5 mg/kg/day IP from day 10 for 12 days, listed as TC 10
  paw inflammation (paw volume): inhibited at both doses
[1]; female rats, 5 and 2.5 mg/kg/day oral
  paw inflammation (paw volume): prevented paw inflammation; also recorded: significant reduction in paw inflammation
[1]; female rats, oral, 5 mg/kg/day
  joint damage (radiographs): effective in female rates in preserving joint damage
[1]; [6]
  paw inflammation (paw volume): also reduced paw inflammation; also recorded: comparable results to ENBREL
[1]; male rats, 2.5 mg/kg/day IP from day 10, 2.5 mg/kg/day
  paw inflammation (paw volume): maximal effect better than ENBREL with nearly complete inhibition of paw inflammation; also recorded: near complete prevention of arthritis bringing paw inflammation near the non-disease control; also recorded: maximum inhibition observed at 2.5 mg/kg/day dose bringing inflammation down to the non-disease control level
[1]; male rats
  joint damage (radiographs; CT scan at 2.5 mg/kg): effective is preserving the joint damage at both concentrations; also recorded: shows preservation of the joint damage; also recorded: able to prevent significant joint damage at both doses 2.5 mg and 0.5 mg compared to the disease control in a dose dependent manner; also recorded: Joint damage was almost completely prevented with no joint damage
  paw inflammation (paw volume), dose effect: can prevent development and progression of rat adjuvant induced arthritis dose dependently with maximum effect observed at 2.5 dose
[1]; [5]
  paw inflammation (paw volume): reduced paw inflammation to control levels similar to those observed for ENBREL
[1]; male rats, 5 mg/kg/day IP from day 10 for 14 days, right paw, listed as NM2026, 5 mg/kg/day
  paw inflammation (paw volume): able to inhibit paw inflammation similar to the effects of ENBREL
[1]; male rats, 5 mg/kg/day oral gavage from day 10, 5 mg/kg/day
  paw inflammation (paw volume): can prevent development and progression of rat adjuvant induced arthritis; also recorded: not as effective as the IP dosing
[1]; male rats, 5 mg/kg/day oral gavage from day 10, listed as TC 10, 5 mg/kg/day
  paw inflammation (paw volume): inhibited paw inflammation to ENBREL controls
[1]; male rats, 5 mg/kg/day oral gavage, 5 mg/kg/day
  joint damage (radiographs, CT scans): effectively preserves the joint damage; also recorded: able to prevent significant joint damage compared to the disease control at 5 mg/kg dose tested; also recorded: near complete prevention of joint destruction at 5 mg/kg/day compared to the diseased control
[1]; [7]
  paw inflammation (paw volume): can prevent development and progression of rat adjuvant induced arthritis comparable to the effects of ENBREL; also recorded: able to inhibit paw inflammation similar to the effects of ENBREL
[1]; male rats, 10 mg/kg/day IP from day 10 for 14 days, left and right paw, listed as TC 10, 10 mg/kg/day
  paw inflammation (paw volume): reduced paw inflammation to control levels similar to those observed for ENBREL
[1]; [8]
  joint histology (H&E staining): minimal inflammation, reduced bone proliferation, preservation of the cartilage, and preservation of the synovial membrane; also recorded: significant preservation of the synovium membrane (white space), significant preservation of the cartilage (space between the 2 blue lines), and minor bone proliferation
[1]; [9]
  joint damage (radiographs, CT scans): prevents joint damage similar to those from ENBREL treated group; also recorded: able to prevent significant joint damage compared to the disease control; also recorded: significant reduction in bone damage in treated animals compared to diseased animals
[2]; male mice, 25, 2.5 and 0.25 mg/kg IP
  clinical scoring of the paws (clinical signs of arthritis): All three doses inhibited clinical signs of the disease; also recorded: significant prevention of arthritis with inhibition greater than ENBREL at all tested doses
[2]; male mice, 25, 2.5 and 0.25 mg/kg IP, listed as chlorotrianisene
  clinical scoring of the paws (clinical signs of arthritis): can reduce paw inflammation
[3]
  weight loss: near negligible

## c1ccc(-c2ccc(C(c3ccccc3)n3ccnc3)cc2)cc1 (stereo not drawn) [TC5, 1-[phenyl(4-phenylphenyl)methyl]-1H-imidazole]
[1]; [6]
  paw inflammation (paw volume): maximum inhibition observed at the 500 μg/kg/day
[1]; male rats, 500 μg/kg/day IP from day 10, listed as TC 5
  paw inflammation (paw volume): also reduced paw inflammation
[1]; male rats, 2.5 mg/kg/day IP from day 10
  paw inflammation (paw volume): demonstrated maximal effect similar to ENBREL
[1]; male rats
  joint damage (radiographs; CT scan at 2.5 mg/kg): effective is preserving the joint damage at both concentrations; also recorded: able to prevent significant joint damage compared to the disease control in a dose dependent manner
  paw inflammation (paw volume), dose effect: can prevent development and progression of rat adjuvant induced arthritis dose dependently
[1]; [7]
  paw inflammation (paw volume): reduced paw inflammation to control levels similar to those observed for ENBREL
[1]; male rats, 10 mg/kg/day IP from day 10 for 14 days, left and right paw, listed as bifonazole, 10 mg/kg/day
  paw inflammation (paw volume): can reduce paw inflammation
[1]; [8]
  joint histology (H&E staining): minimal inflammation, reduced bone proliferation, preservation of the cartilage, and preservation of the synovial membrane; also recorded: significant preservation of the synovium membrane (white space), significant preservation of the cartilage (space between the 2 blue lines), and minor bone proliferation
[1]; [9]
  joint damage (radiographs, CT scans): prevents joint damage similar to those from ENBREL treated group; also recorded: able to prevent significant joint damage compared to the disease control; also recorded: significant reduction in bone damage in treated animals compared to diseased animals
[1]; male rats, 10 mg/kg/day IP, limbs at study end, listed as bifonazole, 10 mg/kg/day
  joint damage (radiographs, CT scans): can reduce paw inflammation (FIGS. 1-2) and ankle damage
[1]; male rats, 5, 2.5 and 0.5 mg/kg/day oral gavage
  joint damage (radiographs; CT scan of 500 μg/Kg oral group): effective in preserving the joint damage at all three concentrations tested; also recorded: significant reduction in bone damage in treated animals compared to diseased animals
[1]; male rats, 5, 2.5 and 0.5 mg/kg/day oral gavage from day 10
  paw inflammation (paw volume): not as effective as the IP dosing
[1]; male rats, 5, 2.5 and 0.5 mg/kg/day oral gavage from day 10, listed as TC 5
  paw inflammation (paw volume): dose dependent with the highest dose demonstrated maximal effect
[4]
  paw inflammation (paw volume): halted the progression of the disease
[2]; male mice, 2.5 and 0.25 mg/kg IP
  clinical scoring of the paws (clinical signs of arthritis): significant prevention of arthritis with inhibition comparable to ENBREL
[2]; male mice, 2.5 and 0.25 mg/kg IP, listed as TC 5
  clinical scoring of the paws (clinical signs of arthritis): inhibited clinical signs of the disease comparable to ENBREL treated groups
[2]; male mice, 2.5 and 0.25 mg/kg IP, listed as bifonazole
  clinical scoring of the paws (clinical signs of arthritis): can reduce paw inflammation
